Measured values published in patent US20240343727A1, “PYRIDAZINONE OR PYRIDINONE COMPOUNDS, PREPARATION METHODS AND USES THEREOF” (InventisBio Co., Ltd., priority 2021, published 2024).

Target: T1, PARP7 (Homo sapiens, UniProt Q7Z3E1)
T1 sequence (Q7Z3E1 1-657): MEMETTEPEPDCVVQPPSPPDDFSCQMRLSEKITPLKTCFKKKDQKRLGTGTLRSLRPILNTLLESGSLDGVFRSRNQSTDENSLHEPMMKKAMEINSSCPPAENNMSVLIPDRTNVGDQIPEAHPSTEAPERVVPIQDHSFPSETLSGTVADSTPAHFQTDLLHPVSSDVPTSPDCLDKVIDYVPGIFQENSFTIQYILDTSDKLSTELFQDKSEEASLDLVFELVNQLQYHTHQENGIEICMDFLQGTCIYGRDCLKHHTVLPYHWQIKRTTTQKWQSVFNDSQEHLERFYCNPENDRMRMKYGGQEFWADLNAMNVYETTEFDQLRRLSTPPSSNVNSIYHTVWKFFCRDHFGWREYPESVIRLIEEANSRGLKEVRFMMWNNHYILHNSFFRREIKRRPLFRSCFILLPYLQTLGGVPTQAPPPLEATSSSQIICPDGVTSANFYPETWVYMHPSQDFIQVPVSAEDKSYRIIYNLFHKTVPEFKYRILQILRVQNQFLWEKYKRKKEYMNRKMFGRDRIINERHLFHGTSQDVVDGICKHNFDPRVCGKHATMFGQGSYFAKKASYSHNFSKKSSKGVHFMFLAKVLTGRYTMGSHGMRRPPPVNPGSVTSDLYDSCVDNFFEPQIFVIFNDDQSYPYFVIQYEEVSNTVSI
Assay: PARP7 TR-FRET assay (binding, displacement of biotinylated Probe A)
Conditions: 6 nM PARP7, 2 nM Probe A, 25° C., 30 min
How it was run: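 His-tagged PARP7 at 6 nM was preincubated with compound and 2 nM biotinylated Probe A for 30 min at 25° C (HEPES pH 8.0, NaCl, BSA, DTT, Tween20). Europium-streptavidin/ULight-anti-His FRET was read as the 665/615 nm ratio after a further 30 min. IC50 was fitted from % inhibition normalised to vehicle and blank.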

With `N#Cc1ccc(N2CCN(C(=O)CC3CN(c4cc(C(F)(F)F)c(=O)[nH]n4)c4cc(Cl)ccc4O3)CC2)nc1` (single isomer, unassigned) [Compound 224] as the molecule, how does the IC50 read?
Its IC50 is less than 0.1 µM.

For `N#Cc1ccc(N2CCN(C(=O)CC3CN(c4cc(C(F)(F)F)c(=O)[nH]n4)c4cc(Cl)ccc4O3)CC2)nc1` (single isomer, unassigned) [Compound 225], which IC50 is on record?
The IC50 was 0.1 to 1 µM.

Which IC50 does the source give for `O=C(CC1CN(c2cc(C(F)(F)F)c(=O)[nH]n2)c2cc(C(F)F)ccc2O1)N1CCN(c2ncc(C(F)(F)F)cn2)CC1` (single isomer, unassigned) [Compound 227] here?
The IC50 was less than 0.1 µM.

With `O=C(CC1CN(c2cc(C(F)(F)F)c(=O)[nH]n2)c2cc(C(F)F)ccc2O1)N1CCN(c2ncc(C(F)(F)F)cn2)CC1` (single isomer, unassigned) [Compound 228] as the molecule, how does the IC50 read?
The IC50 was less than 0.1 µM.

With `N#Cc1ccc(N2CCN(C(=O)CC3CN(c4cc(C(F)(F)F)c(=O)[nH]n4)c4cc(C#N)ccc4O3)CC2)nc1` (single isomer, unassigned) [Compound 230] as the molecule, how does the IC50 read?
The IC50 was 0.1 to 1 µM.

How did the IC50 turn out when `C#Cc1cnc(N2CCN(C(=O)CC3CN(c4cc(C(F)(F)F)c(=O)[nH]n4)c4cc(C#N)ccc4O3)CC2)nc1` (single isomer, unassigned) [Compound 235] was run?
Its IC50 is less than 0.1 µM.

How did the IC50 turn out when `O=C(CC1CN(c2n[nH]c(=O)c3cc(Cl)cc(F)c23)CCO1)N1CCN(c2ncc(C(F)(F)F)cn2)CC1` (single isomer, unassigned) [Compound 240] was run?
Its IC50 is 0.1 to 1 µM.

With `O=C(CC1CN(c2n[nH]c(=O)c3cc(Cl)cc(F)c23)CCO1)N1CCN(c2ncc(C(F)(F)F)cn2)CC1` (single isomer, unassigned) [Compound 241] as the molecule, how does the IC50 read?
The IC50 was greater than 1 µM.

For `N#Cc1ccc2c(=O)[nH]nc(N3CCOC(CC(=O)N4CCN(c5ncc(C(F)(F)F)cn5)CC4)C3)c2c1` (single isomer, unassigned) [Compound 244], which IC50 is on record?
Its IC50 is 0.1 to 1 µM.

For `N#Cc1ccc2c(=O)[nH]nc(N3CCOC(CC(=O)N4CCN(c5ncc(C(F)(F)F)cn5)CC4)C3)c2c1` (single isomer, unassigned) [Compound 245], which IC50 is on record?
The IC50 was less than 0.1 µM.

With `O=C(CC1CN(c2cc(C(F)(F)F)c(=O)[nH]n2)c2ccccc2O1)N1CCN(c2ccc(C(F)(F)F)cn2)CC1` (single isomer, unassigned) [Compound 246] as the molecule, how does the IC50 read?
Its IC50 is less than 0.1 µM.

Which IC50 does the source give for `O=C(CC1CN(c2cc(C(F)(F)F)c(=O)[nH]n2)c2ccccc2O1)N1CCN(c2ccc(C(F)(F)F)cn2)CC1` (single isomer, unassigned) [Compound 247] here?
Its IC50 is 0.1 to 1 µM.

Which IC50 does the source give for `O=C(CC1CN(c2cc(C(F)(F)F)c(=O)[nH]n2)c2ccccc2O1)N1CCN(c2ncc(C(F)F)cn2)CC1` (single isomer, unassigned) [Compound 248] here?
Its IC50 is less than 0.1 µM.

Which IC50 does the source give for `O=C(CC1CN(c2cc(C(F)(F)F)c(=O)[nH]n2)c2ccccc2O1)N1CCN(c2ncc(C(F)F)cn2)CC1` (single isomer, unassigned) [Compound 249] here?
Its IC50 is 0.1 to 1 µM.

`N#Cc1cnc(N2CCN(C(=O)CC3CN(c4cc(C(F)(F)F)c(=O)[nH]n4)c4ccccc4O3)CC2)nc1` (single isomer, unassigned) [Compound 250] was tested. Which IC50 did it give?
The IC50 was less than 0.1 µM.

With `N#Cc1cnc(N2CCN(C(=O)CC3CN(c4cc(C(F)(F)F)c(=O)[nH]n4)c4ccccc4O3)CC2)nc1` (single isomer, unassigned) [Compound 251] as the molecule, how does the IC50 read?
Its IC50 is 0.1 to 1 µM.

With `O=C(CC1CN(c2n[nH]c(=O)c3ccc(N4CCCC4)cc23)CCO1)N1CCN(c2ncc(C(F)(F)F)cn2)CC1` (single isomer, unassigned) [Compound 258] as the molecule, how does the IC50 read?
Its IC50 is less than 0.1 µM.

`Cn1ccc(-c2ccc3c(=O)[nH]nc(N4CCOC(CC(=O)N5CCN(c6ncc(C(F)(F)F)cn6)CC5)C4)c3c2)n1` (single isomer, unassigned) [Compound 259] was tested. Which IC50 did it give?
The IC50 was less than 0.1 µM.

How did the IC50 turn out when `O=C(CC1CN(c2cc(C(F)(F)F)c(=O)[nH]n2)c2ccccc2O1)N1CCN(c2ccc(Cl)cn2)CC1` (single isomer, unassigned) [Compound 260] was run?
Its IC50 is 0.1 to 1 µM.

For `O=C(CC1CN(c2cc(C(F)(F)F)c(=O)[nH]n2)c2ccccc2O1)N1CCN(c2ccc(Cl)cn2)CC1` (single isomer, unassigned) [Compound 261], which IC50 is on record?
Its IC50 is less than 0.1 µM.

How did the IC50 turn out when `O=C(CC1CN(c2cc(C(F)(F)F)c(=O)[nH]n2)c2ccccc2O1)N1CCN(c2cnc(C(F)(F)F)cn2)CC1` (single isomer, unassigned) [Compound 262] was run?
The IC50 was less than 0.1 µM.

For `O=C(CC1CN(c2cc(C(F)(F)F)c(=O)[nH]n2)c2ccccc2O1)N1CCN(c2cnc(C(F)(F)F)cn2)CC1` (single isomer, unassigned) [Compound 263], which IC50 is on record?
The IC50 was 0.1 to 1 µM.

How did the IC50 turn out when `N#Cc1cnc(N2CCN(C(=O)CC3CN(c4cc(C(F)(F)F)c(=O)[nH]n4)c4cc(F)ccc4O3)CC2)nc1` (single isomer, unassigned) [Compound 264] was run?
The IC50 was less than 0.1 µM.

How did the IC50 turn out when `N#Cc1cnc(N2CCN(C(=O)CC3CN(c4cc(C(F)(F)F)c(=O)[nH]n4)c4cc(F)ccc4O3)CC2)nc1` (single isomer, unassigned) [Compound 265] was run?
Its IC50 is 0.1 to 1 µM.

How did the IC50 turn out when `COCc1ccc2c(c1)N(c1cc(C(F)(F)F)c(=O)[nH]n1)CC(CC(=O)N1CCN(c3ncc(C(F)(F)F)cn3)CC1)O2` (single isomer, unassigned) [Compound 267] was run?
The IC50 was less than 0.1 µM.

Which IC50 does the source give for `N#Cc1ccc(N2CCN(C(=O)CC3CN(c4cc(C(F)(F)F)c(=O)[nH]n4)c4cc(F)ccc4O3)CC2)nc1` (single isomer, unassigned) [Compound 268] here?
Its IC50 is less than 0.1 µM.

Which IC50 does the source give for `N#Cc1ccc(N2CCN(C(=O)CC3CN(c4cc(C(F)(F)F)c(=O)[nH]n4)c4cc(F)ccc4O3)CC2)nc1` (single isomer, unassigned) [Compound 269] here?
Its IC50 is 0.1 to 1 µM.

`CS(=O)(=O)Cc1ccc2c(c1)N(c1cc(C(F)(F)F)c(=O)[nH]n1)CC(CC(=O)N1CCN(c3ncc(C(F)(F)F)cn3)CC1)O2` (single isomer, unassigned) [Compound 270] was tested. Which IC50 did it give?
The IC50 was less than 0.1 µM.

With `CS(=O)(=O)Cc1ccc2c(c1)N(c1cc(C(F)(F)F)c(=O)[nH]n1)CC(CC(=O)N1CCN(c3ncc(C(F)(F)F)cn3)CC1)O2` (single isomer, unassigned) [Compound 271] as the molecule, how does the IC50 read?
Its IC50 is less than 0.1 µM.

For `O=C(CC1CN(c2cc(C(F)(F)F)c(=O)[nH]n2)c2cc(N3CCOCC3=O)ccc2O1)N1CCN(c2ncc(C(F)(F)F)cn2)CC1` (single isomer, unassigned) [Compound 281], which IC50 is on record?
The IC50 was less than 0.1 µM.

How did the IC50 turn out when `O=C(CC1CN(c2cc(C(F)(F)F)c(=O)[nH]n2)c2cc(N3CCOCC3=O)ccc2O1)N1CCN(c2ncc(C(F)(F)F)cn2)CC1` (single isomer, unassigned) [Compound 282] was run?
The IC50 was less than 0.1 µM.

`COCC(=O)Nc1ccc2c(c1)N(c1cc(C(F)(F)F)c(=O)[nH]n1)CC(CC(=O)N1CCN(c3ncc(C(F)(F)F)cn3)CC1)O2` (single isomer, unassigned) [Compound 283] was tested. Which IC50 did it give?
The IC50 was less than 0.1 µM.

For `COCC(=O)Nc1ccc2c(c1)N(c1cc(C(F)(F)F)c(=O)[nH]n1)CC(CC(=O)N1CCN(c3ncc(C(F)(F)F)cn3)CC1)O2` (single isomer, unassigned) [Compound 284], which IC50 is on record?
The IC50 was 0.1 to 1 µM.

With `O=C(CC1CN(c2cc(C(F)(F)F)c(=O)[nH]n2)c2ccccc2O1)N1CCN(c2ccc(C3CC3)cn2)CC1` (single isomer, unassigned) [Compound 285] as the molecule, how does the IC50 read?
Its IC50 is less than 0.1 µM.

`O=C(CC1CN(c2cc(C(F)(F)F)c(=O)[nH]n2)c2ccccc2O1)N1CCN(c2ccc(C3CC3)cn2)CC1` (single isomer, unassigned) [Compound 286] was tested. Which IC50 did it give?
Its IC50 is greater than 1 µM.

How did the IC50 turn out when `O=C(CC1CN(c2cc(C(F)(F)F)c(=O)[nH]n2)c2ccccc2O1)N1CCN(c2nnc(C(F)(F)F)s2)CC1` (single isomer, unassigned) [Compound 287] was run?
The IC50 was 0.1 to 1 µM.

Which IC50 does the source give for `O=C(CC1CN(c2cc(C(F)(F)F)c(=O)[nH]n2)c2ccccc2O1)N1CCN(c2nnc(C(F)(F)F)s2)CC1` (single isomer, unassigned) [Compound 288] here?
The IC50 was greater than 1 µM.

How did the IC50 turn out when `O=C(CC1CN(c2cc(C(F)(F)F)c(=O)[nH]n2)c2ccccc2O1)N1CCn2c(nnc2C(F)(F)F)C1` (single isomer, unassigned) [Compound 289] was run?
The IC50 was greater than 1 µM.

`O=C(CC1CN(c2cc(C(F)(F)F)c(=O)[nH]n2)c2ccccc2O1)N1CCn2c(nnc2C(F)(F)F)C1` (single isomer, unassigned) [Compound 290] was tested. Which IC50 did it give?
The IC50 was greater than 1 µM.

`O=C(CC1CN(c2cc(C(F)(F)F)c(=O)[nH]n2)c2cc(F)ccc2O1)N1CCN(c2cnc(C(F)(F)F)cn2)CC1` (single isomer, unassigned) [Compound 292] was tested. Which IC50 did it give?
Its IC50 is 0.1 to 1 µM.

Which IC50 does the source give for `N#Cc1cnc(N2CCN(C(=O)CC3CN(c4cc(C(F)(F)F)c(=O)[nH]n4)c4cc(Cl)ccc4O3)CC2)nc1` (single isomer, unassigned) [Compound 293] here?
The IC50 was less than 0.1 µM.

With `N#Cc1cnc(N2CCN(C(=O)CC3CN(c4cc(C(F)(F)F)c(=O)[nH]n4)c4cc(Cl)ccc4O3)CC2)nc1` (single isomer, unassigned) [Compound 294] as the molecule, how does the IC50 read?
Its IC50 is 0.1 to 1 µM.

Which IC50 does the source give for `O=C(CC1CN(c2cc(C(F)(F)F)c(=O)[nH]n2)c2ccccc2O1)N1CCN(c2ncc(Cl)cn2)CC1` (single isomer, unassigned) [Compound 295] here?
Its IC50 is 0.1 to 1 µM.

For `O=C(CC1CN(c2cc(C(F)(F)F)c(=O)[nH]n2)c2ccccc2O1)N1CCN(c2ncc(Cl)cn2)CC1` (single isomer, unassigned) [Compound 296], which IC50 is on record?
Its IC50 is less than 0.1 µM.
